Test results reported in US20250120927A1, “CNDP2 MODULATORS AND METHODS FOR THEIR USE” (Metabolon Inc., priority 2023, published 2025).
pIC50: −log10 of the molar value.

Biological target: CNDP2 (Homo sapiens (Human), UniProt Q96KP4)
Experiment: CNDP2 enzyme inhibition assay (Met-His hydrolysis, free histidine by o-phthaldialdehyde fluorescence), dose-response
Type: biochemical
[1] = 50 nM purified CNDP2 (Sino Biological), 1 mM Met-His substrate, 30 minutes at 37° C., TABLE 2

Chain of CNDP2 (Q96KP4 whole entry): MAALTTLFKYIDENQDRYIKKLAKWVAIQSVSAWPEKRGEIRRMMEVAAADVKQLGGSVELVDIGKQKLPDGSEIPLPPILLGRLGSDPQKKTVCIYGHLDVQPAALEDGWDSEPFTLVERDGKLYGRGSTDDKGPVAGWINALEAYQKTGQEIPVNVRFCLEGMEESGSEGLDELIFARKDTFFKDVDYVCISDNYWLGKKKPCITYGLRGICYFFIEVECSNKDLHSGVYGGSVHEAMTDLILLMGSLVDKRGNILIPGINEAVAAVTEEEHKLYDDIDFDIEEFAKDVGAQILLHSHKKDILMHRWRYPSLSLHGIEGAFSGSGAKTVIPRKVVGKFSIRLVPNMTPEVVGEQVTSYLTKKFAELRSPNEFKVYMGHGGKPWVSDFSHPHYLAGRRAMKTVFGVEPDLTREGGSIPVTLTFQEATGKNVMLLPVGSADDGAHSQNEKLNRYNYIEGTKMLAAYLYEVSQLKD

SMILES	pIC50 [1]	pIC50 (50 nM purified CNDP2 (Sino Biological), 1 mM Met-His substrate, 30 minutes at 37° C., TABLE 1)	pIC50 (bestatin 10 microM down to 5 pM, consistent across run days)
N[C@H](Cc1ccc(Cl)cc1)[C@H](O)C(=O)N[C@@H](C(=O)O)c1cccc(OC(F)(F)F)c1 [Compound 128, (R)-2-((2S,3R)-3-amino-4-(4-chlorophenyl)-2-hydroxybutanamido)-2-(3-(trifluoromethoxy)phenyl)acetic acid]	≤ 6.00	–	–
N[C@H](Cc1ccc(Br)cc1)[C@H](O)C(=O)N[C@H](C(=O)O)c1cccc(OC(F)(F)F)c1 [Compound 129, (S)-2-((2S,3R)-3-amino-4-(4-bromophenyl)-2-hydroxybutanamido)-2-(3-(trifluoromethoxy)phenyl)acetic acid]	≤ 6.00	–	–
N[C@H](Cc1ccc(Br)cc1)[C@H](O)C(=O)N[C@@H](C(=O)O)c1cccc(OC(F)(F)F)c1 [Compound 130, (R)-2-((2S,3R)-3-amino-4-(4-bromophenyl)-2-hydroxybutanamido)-2-(3-(trifluoromethoxy)phenyl)acetic acid]	≤ 6.00	–	–
N[C@H](Cc1ccc(C(F)(F)F)cc1)[C@H](O)C(=O)N[C@@H](C(=O)O)c1cccc(OC(F)(F)F)c1 [Compound 132, (R)-2-((2S,3R)-3-amino-2-hydroxy-4-(4-(trifluoromethyl)phenyl)butanamido)-2-(3-(trifluoromethoxy)phenyl)acetic acid]	6.00 to 7.00	–	–
N[C@H](Cc1ccc(C(F)(F)F)cc1)[C@H](O)C(=O)N[C@H](C(=O)O)c1cccc(OC(F)(F)F)c1 [Compound 133]	≤ 6.00	–	–
N[C@H](Cc1ccc(C(F)(F)F)cc1)[C@H](O)C(=O)N[C@@H](C(=O)O)c1cccc(OC(F)(F)F)c1 [Compound 134]	≤ 6.00	–	–
CC(C)C[C@H](NC(=O)[C@@H](O)[C@H](N)Cc1ccccc1)C(=O)O [bestatin, reference compound]	–	≤ 6.00	~5.70
